# Experimental data reported in patent publication US20110124574A1, “RESTORATION OF ESTROGEN RECEPTOR-(ALPHA) ACTIVITY” (priority 2008, published 2011).
# Where no end group is shown, it is not given here. The star is where a group is joined. For = O=C*
# B1: recombinant Wnt-5a: recombinant Wnt-5a protein (R&D Systems) (protein, UniProt P41221 62-380, looked up)
# Protein Wnt-5a: IIGAQPLCSQLAGLSQGQKKLCHLYQDHMQYIGEGAKTGIKECQYQFRHRRWNCSTVDNTSVFGRVMQIGSRETAFTYAVSAAGVVNAMSRACREGELSTCGCSRAARPKDLPRDWLWGGCGDNIDYGYRFAKEFVDARERERIHAKGSYESARILMNLHNNEAGRRTVYNLADVACKCHGVSGSCSLKTCWLQLADFRKVGDALKEKYDSAAAMRLNSRGKLVQVNSRFNSPTTQDLVYIDPSPDYCVRNESTGSLGTQGRLCNKTSEGMDGCELMCCGRGYDQFKTVQTERCHCKFHWCCYVKCKKCTEIVDQFVCK
# Legend:
# [1] = system: murine ERα; assay: In vivo ERα RT-PCR in 4T1 primary breast tumors of Balb/C mice; parameters: species or system mouse; conditions: Balb/C mice with 4T1 cells in mammary fat pads, 20 μg every fourth day for 25 days
# Procedure: 2.5×10^4 4T1 breast cancer cells were inoculated into the mammary fat pads of 8-week old Balb/C mice. The animals were subsequently treated with either PBS alone, the Rdm control peptide (20 μg) or Foxy-5 (20 μg), every 4th day, for 25 days. RNA was extracted from primary breast tumors from 4 animals in each group, and subjected to RT-PCR for murine ERα. Shown are primary tumor samples from two animals of each treatment group.
# 2.5×10^4 4T1 breast cancer cells were inoculated into the mammary fat pads of 8 week old Balb/C mice, that were subsequently treated with either PBS alone, the Rdm control peptide (20 μg), or Foxy-5 (20 μg) every 4th day, for 25 days as described in a previous publication from the inventors (9). RNA was extracted from flash frozen primary breast tumors from 4 animals in each group, and subjected to RT-PCR for murine ERα.
# [2] = system: ERα; assay: ERα protein expression by Western blot in stimulated MDA-MB-231 cells; format: cell-based, human; conditions: stimulation 24 and 48 hours, rWnt-5a 0.6 μg/ml, rWnt-3a 0.1 μg/ml, peptides 100 μM
# Procedure: Breast cancer cells were grown in 6 well plates, and stimulated with recombinant Wnt-5a protein (rW5a), the Wnt-5a derived Foxy-5 peptide (F5), recombinant Wnt-3a protein (rW3a), or a formylated random hexapeptide (Rdm) for 24 or 48 h. Following treatment cells were lysed and subjected to SDS-PAGE, transferred to nitrocellulose membranes and blotted for ERα expression. A: MDA-MB-231 cells stimulated with recombinant Wnt-5a, Foxy-5, Wnt-3a, Rdm. B: MDA-MB-468 cells stimulated with recombinant Wnt-5a or Foxy-5. C: 4T1 cells stimulated with recombinant Wnt-5a or Foxy-5. Positive controls (Pos) were included in order to confirm the correct band size for ERα. Two different positive controls were used: T47D cell lysates known to express ERα and MDA-MB-231 cells transiently transfected with a full length ERα plasmid, resulting in extremely high ERα expression (top row, right panel, third row, right panel).
# Stimulation of cells was performed with recombinant Wnt-5a (0.6 μg/ml) and recombinant Wnt-3a (0.1 μg/ml and in a control experiment, 0.6 μg/ml) (R&D Systems Abington, UK) for times as indicated. The Wnt-5a derived formylated hexapeptide, Foxy-5 (formyl-MDGCEL) (SEQ. ID. NO. 1) designed in the laboratory of the inventors, and a formylated random hexapeptide (formyl-MSADVG) (SEQ: ID: NO: 16) were either synthesized by Pepscan Presto (Lelystad, The Netherlands) or Inbiolabs (Tallinn, Estonia). The peptides were purified by RP-HPLC and mass spectrometry, and the >95% pure peptides were synthesized three times. Cells were treated with Foxy-5 or random peptide at a concentration of 100 μM for times as indicated. All other chemicals if not otherwise stated were purchased from Sigma Chemicals (St. Louis, Mo.).
# Cells were lysed in Triton lysis buffer (50 mM Tris (pH7.5), 1% Triton x-100, 140 mM NaCl, 0.5 mM EDTA, 0.5 MgCl2, 10 mM NaF) with the addition of fresh leupeptin (1 μg/ml), Pefabloc (2 mM), aprotinin (20 μg/ml) and Na3VO4 (4 mM). […] Scanning and densitometry was performed using a Bio-Rad (Hercules Calif.) GS-800 densitometer with Quantity One software. […]
Molecule,ERα expression in primary tumors [1],levels of ERα protein [2]
formyl-MDGCEL (For-MDGCEL; listed as Homo sapiens) [Foxy-5],strong ERα expression,
B1,,increase
